Marks after values point to notes of the source that are not given here.
These molecules were tested against hERG (human ether-a-go-go-related gene) potassium channel (Homo sapiens, UniProt Q12809) (assay: QPatch automated patch-clamp hERG activator 4-concentration EC50 assay). Details: increase of hERG tail current amplitude at 7 second (TL7); 3.3 uM (footnote *); hERG stably expressed in CHO cells.
Sequence of hERG (human ether-a-go-go-related gene) potassium channel (Q12809 whole entry): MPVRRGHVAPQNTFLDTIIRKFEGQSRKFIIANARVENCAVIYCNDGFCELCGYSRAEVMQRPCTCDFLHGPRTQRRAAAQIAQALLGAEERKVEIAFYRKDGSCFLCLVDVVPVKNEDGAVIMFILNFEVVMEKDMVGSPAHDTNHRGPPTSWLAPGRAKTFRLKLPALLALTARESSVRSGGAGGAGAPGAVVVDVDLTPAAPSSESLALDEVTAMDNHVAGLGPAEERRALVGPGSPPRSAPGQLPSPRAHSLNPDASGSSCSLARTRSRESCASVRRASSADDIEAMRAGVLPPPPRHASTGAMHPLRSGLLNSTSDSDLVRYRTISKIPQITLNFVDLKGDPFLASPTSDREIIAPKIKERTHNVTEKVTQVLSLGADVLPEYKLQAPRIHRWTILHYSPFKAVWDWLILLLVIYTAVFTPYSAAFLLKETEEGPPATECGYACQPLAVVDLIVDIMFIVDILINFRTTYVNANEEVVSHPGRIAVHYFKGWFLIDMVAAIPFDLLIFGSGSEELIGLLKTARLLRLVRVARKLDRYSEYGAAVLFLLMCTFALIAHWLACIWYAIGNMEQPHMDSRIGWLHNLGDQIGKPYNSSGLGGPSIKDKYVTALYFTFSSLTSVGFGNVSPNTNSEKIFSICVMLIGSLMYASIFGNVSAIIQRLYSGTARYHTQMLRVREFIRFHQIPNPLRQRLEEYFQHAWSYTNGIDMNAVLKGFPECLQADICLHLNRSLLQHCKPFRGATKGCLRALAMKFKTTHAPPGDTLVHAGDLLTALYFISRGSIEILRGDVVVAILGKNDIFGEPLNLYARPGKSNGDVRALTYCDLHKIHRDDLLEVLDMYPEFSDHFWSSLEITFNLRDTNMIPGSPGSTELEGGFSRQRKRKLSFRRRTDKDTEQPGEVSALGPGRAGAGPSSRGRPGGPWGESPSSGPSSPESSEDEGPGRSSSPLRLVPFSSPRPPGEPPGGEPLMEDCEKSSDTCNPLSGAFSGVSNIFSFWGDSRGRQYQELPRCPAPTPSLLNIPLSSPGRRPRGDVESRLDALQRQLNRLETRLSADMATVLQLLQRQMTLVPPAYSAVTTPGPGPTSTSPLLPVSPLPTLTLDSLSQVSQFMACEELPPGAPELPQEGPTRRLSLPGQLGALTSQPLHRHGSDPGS

| Structure (SMILES) | % change@TL7 (*@3.3 uM) |
| --- | --- |
| CCOc1c(F)cc(NCc2ccc3cc(-c4nn[nH]n4)oc3c2)cc1Br [Example 2] | 126* % |

Same assay, conditions: increase of hERG tail current amplitude at 7 second (TL7); 10 uM; hERG stably expressed in CHO cells

| Structure (SMILES) | % change@TL7@10 uM [%] |
| --- | --- |
| O=C(O)c1cc2ccc(CNc3ccc(OCC(F)(F)F)c(C(F)(F)F)c3)cc2o1 [Example 118] | 27 |
| Fc1cc2oc(-c3nnn[nH]3)cc2cc1CNc1ccc(OCC(F)(F)F)c(C(F)(F)F)c1 [Example 127] | 268 |
| FC(F)(F)Sc1ccc(NCc2ccc3oc(-c4nnn[nH]4)cc3c2)cc1Cl [Example 64] | 348 |
| CCc1ccc(NCc2ccc3oc(C(=O)O)cc3c2)cc1C(F)(F)F [Example 124] | 167 |
| FC(F)(F)c1cc(NCc2cc3cc(-c4nnn[nH]4)oc3cc2Cl)cc(C(F)(F)F)c1Br [Example 137] | 166 |
| CCCc1ccc(NCc2ccc3oc(C(=O)O)cc3c2)cc1Cl [Example 121] | 210 |
| Fc1c(CNc2ccc(OC(F)(F)F)c(Br)c2)ccc2oc(-c3nnn[nH]3)cc12 [Example 140] | 290 |
| Fc1cc(NCc2cc3oc(-c4nnn[nH]4)cc3cc2F)ccc1Cl [Example 214] | 138 |
| Fc1cc2cc(-c3nnn[nH]3)oc2cc1CNc1ccc(F)c(C(F)(F)F)c1 [Example 176] | 120 |
| O=C(O)c1cc2cc(F)c(CNc3cc(C(F)(F)F)c(Br)c(C(F)(F)F)c3)cc2o1 [Example 229] | 424 |
| FC(F)(F)c1ccc(NCc2ccc3c(C(F)(F)F)c(-c4nnn[nH]4)oc3c2)cc1Cl [Example 61] | 47 |
| CSc1cccc(NCc2ccc3cc(C(=O)O)oc3c2)c1 [Example 97] | 159 |
| FC(F)(F)Oc1ccc(NCc2ccc3oc(-c4nn[nH]n4)cc3c2)cc1Br [Example 149] | 335 |
| CCOc1ccc(NCc2ccc3cc(-c4nnn[nH]4)oc3c2Cl)cc1C(F)(F)F [Example 206] | 160 |
| Cc1cc(NCc2ccc3cc(C(=O)O)oc3c2)ccc1OC(F)(F)F [Example 102] | 153 |
| FC(F)(F)Oc1cc(NCc2cc3oc(-c4nnn[nH]4)cc3cc2Cl)ccc1Cl [Example 13] | 39 |
| O=C(O)c1cc2cc(F)c(CNc3cc(Cl)c(Cl)c(Cl)c3)cc2o1 [Example 232] | 247 |
| CCOc1ccc(NCc2cc3oc(-c4nnn[nH]4)cc3cc2F)cc1C(F)(F)F [Example 161] | 288 |
| CCOc1c(Cl)cc(NCc2cc3oc(-c4nnn[nH]4)cc3cc2Cl)cc1Cl [Example 5] | 146 |
| FC(F)(F)Oc1ccc(NCc2ccc3cc(-c4nn[nH]n4)oc3c2)cc1OC(F)(F)F [Example 41] | 160 |
| CCOc1ccc(NCc2cc3oc(-c4nnn[nH]4)cc3cc2Cl)cc1C(F)(F)F [Example 10] | 285 |
| O=C(O)c1cc2ccc(CNc3ccc(C(F)(F)F)c(C(F)(F)F)c3)cc2o1 [Example 101] | 156 |
| Clc1cc2cc(-c3nnn[nH]3)oc2cc1CNc1cc(Cl)c(Cl)c(Cl)c1 [Example 15] | 162 |
| FC(F)(F)c1cc(NCc2ccc3cc(-c4nn[nH]n4)oc3c2)ccc1Br [Example 39] | 164 |
| CSc1ccc(NCc2ccc3cc(C(=O)O)oc3c2)cc1C(F)(F)F [Example 96] | 185 |
| FC(F)(F)Oc1ccc(NCc2ccc3cc(-c4nn[nH]n4)oc3c2)cc1 [Example 63] | 34 |
| Cc1nc2cc(NCc3ccc4cc(C(=O)O)oc4c3)ccc2s1 [Example 114] | 45 |
| CCCc1cc(NCc2ccc3oc(-c4nnn[nH]4)cc3c2)ccc1Cl [Example 68] | 224 |

| Structure (SMILES) | % change@TL7@10 uM [%] |
| --- | --- |
| Fc1cc2oc(-c3nnn[nH]3)cc2cc1CNc1ccc(Cl)c(Cl)c1 [Example 129] | 154 |
| Fc1c(CNc2cc(C(F)(F)F)c(Br)c(C(F)(F)F)c2)ccc2oc(-c3nnn[nH]3)cc12 [Example 143] | 193 |
| O=C(O)c1cc2ccc(CNc3ccc4c(c3)OC(F)(F)C(F)(F)O4)cc2o1 [Example 94] | 194 |
| O=C(O)c1cc2ccc(CNc3ccc(OC(F)(F)F)c(OC(F)(F)F)c3)cc2o1 [Example 104] | 111 |
| COc1ccc(NCc2ccc3cc(-c4nn[nH]n4)oc3c2)cc1Br [Example 174] | 273 |
| Fc1cc2cc(-c3nnn[nH]3)oc2cc1CNc1ccc(C(F)(F)F)c(F)c1 [Example 203] | 136 |
| O=C(O)c1cc2ccc(CNc3cc(F)c(F)c(Br)c3)cc2o1 [Example 106] | 90 |
| O=C(O)c1cc2ccc(CNc3cc(Cl)nc(Cl)c3)cc2o1 [Example 119] | 22 |
| FC(F)Oc1ccc(NCc2cc3cc(-c4nnn[nH]4)oc3cc2Cl)cc1C(F)(F)F [Example 134] | 217 |
| CCOc1ccc(NCc2cc3oc(-c4nnn[nH]4)cc3cc2F)cc1Cl [Example 211] | 248 |
| FC(F)(F)COc1ccc(NCc2cc3oc(-c4nnn[nH]4)cc3cc2Cl)cc1Cl [Example 8] | 128 |
| CCCc1ccc(NCc2ccc3cc(-c4nnn[nH]4)oc3c2)cc1Br [Example 42] | 159 |
| CCOc1ccc(NCc2cc3oc(-c4nnn[nH]4)cc3cc2Br)cc1C(F)(F)F [Example 178] | 262 |
| C=C(C)c1cc(NCc2ccc3cc(-c4nn[nH]n4)oc3c2)ccc1OC(F)(F)F [Example 11] | 129 |
| O=C(O)c1cc2cc(F)c(CNc3ccc(OC(F)(F)F)c(Cl)c3)cc2o1 [Example 226] | 182 |
| FC(F)(F)c1ccc(NCc2ccc3cc(-c4nn[nH]n4)oc3c2)cc1C(F)(F)F [Example 52] | 95 |
| Cc1cc(NCc2cc3oc(-c4nnn[nH]4)cc3cc2F)cc(C(F)(F)F)c1 [Example 195] | 249 |
| Fc1cc2cc(-c3nnn[nH]3)oc2cc1CNc1ccc(OCC(F)F)c(C(F)(F)F)c1 [Example 162] | 372 |
| CCc1ccc(NCc2ccc3oc(-c4nnn[nH]4)cc3c2)cc1C(F)(F)F [Example 78] | 108 |
| O=C(O)c1oc2cc(CNc3ccc(OC(F)(F)F)c(Br)c3)ccc2c1C(F)(F)F [Example 107] | 85 |
| Cc1cc(NCc2ccc3cc(-c4nn[nH]n4)oc3c2)ccc1OC(F)(F)F [Example 21] | 333 |
| FC(F)(F)Oc1ccc(NCc2ccc3cc(-c4nn[nH]n4)oc3c2)cc1Br [Example 37, N-((2-(2H-tetrazol-5-yl)benzofuran-6-yl)methyl)-3-bromo-4-(trifluoromethoxy)aniline] | 170 |
| Cc1cc2cc(-c3nnn[nH]3)oc2cc1CNc1ccc(OCC(F)(F)F)c(C(F)(F)F)c1 [Example 170] | 299 |
| CC(C)Oc1ccc(NCc2cc3oc(-c4nnn[nH]4)cc3cc2Br)cc1C(F)(F)F [Example 173] | 278 |
| Cc1cc(NCc2cc3oc(-c4nnn[nH]4)cc3cc2Cl)cc(C(F)(F)F)c1 [Example 213] | 144 |
| O=C(O)c1cc2cc(F)c(CNc3ccc(OC(F)(F)F)c(Br)c3)cc2o1 [Example 227] | 188 |
| Fc1cc2cc(-c3nnn[nH]3)oc2cc1CNc1ccc(OCC(F)(F)F)c(C(F)(F)F)c1 [Example 168] | 240 |

— patent publication US9255093B2, “Polycyclic HERG activators” (NOVARTIS AG, priority 2014, dated 2016)
